# Measurements from US12201633B2, “Compounds and methods for treatment of visceral pain” (Arena Pharmaceuticals, Inc., priority 2017, dated 2025).
# pEC50, pKi: −log10 of the molar value.
# Tests used:
# [1] = system: acute and chronic pain from chemical, mechanical, and thermal pain stimuli; settings: animal studies; cited from earlier work
# [2] = system: rats following ligation of spinal nerves; settings: cited from earlier work
# [3] = target: T1, human CB2 receptor (Homo sapiens, UniProt P34972); assay: PathHunter β-arrestin assay, CB2
# T1 sequence (P34972 whole entry): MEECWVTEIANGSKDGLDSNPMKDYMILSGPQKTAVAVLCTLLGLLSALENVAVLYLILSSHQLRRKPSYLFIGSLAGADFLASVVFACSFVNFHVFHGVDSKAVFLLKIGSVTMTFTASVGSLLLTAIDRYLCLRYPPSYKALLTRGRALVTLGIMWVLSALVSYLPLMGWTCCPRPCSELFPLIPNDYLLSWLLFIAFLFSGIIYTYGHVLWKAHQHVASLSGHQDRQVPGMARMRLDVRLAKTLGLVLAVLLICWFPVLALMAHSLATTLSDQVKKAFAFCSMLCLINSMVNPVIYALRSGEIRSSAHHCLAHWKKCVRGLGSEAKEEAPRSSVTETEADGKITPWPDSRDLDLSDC
# [4] = target: T2, hCB1 (Homo sapiens, UniProt P21554); assay: HTRF assay for direct cAMP measurement, CB1; format: cell-based; parameters: 93-0164 (CHO-K1 EA-Arrestin parental line); host or cells: CHO-K1 EA-Arrestin, clone #3
# T2 sequence (P21554 whole entry): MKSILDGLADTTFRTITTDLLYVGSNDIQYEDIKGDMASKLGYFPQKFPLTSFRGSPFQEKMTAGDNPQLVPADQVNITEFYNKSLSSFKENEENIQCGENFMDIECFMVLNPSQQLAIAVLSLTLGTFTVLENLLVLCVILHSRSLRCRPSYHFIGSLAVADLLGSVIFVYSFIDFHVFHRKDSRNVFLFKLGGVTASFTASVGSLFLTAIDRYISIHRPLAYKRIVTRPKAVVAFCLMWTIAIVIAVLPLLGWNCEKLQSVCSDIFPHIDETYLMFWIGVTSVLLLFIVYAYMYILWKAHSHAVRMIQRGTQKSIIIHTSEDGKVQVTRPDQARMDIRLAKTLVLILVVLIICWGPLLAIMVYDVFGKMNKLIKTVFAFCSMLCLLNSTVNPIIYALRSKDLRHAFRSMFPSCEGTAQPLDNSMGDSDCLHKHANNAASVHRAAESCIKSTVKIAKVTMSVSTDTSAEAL
# Source text: Compounds were also screened for agonists and inverse agonists of the CB1 receptor (e.g., human CB1 receptor) using HTRF® assay for direct cAMP measurement (Gabriel et al., ASSAY and Drug Development Technologies, 1:291-303, 2003) in recombinant CHO-K1 cells stably transfected with the CB1 receptor. […] An agonist of the CB1 receptor was detected in the HTRF® assay for direct cAMP measurement as a compound which decreased cAMP concentration. An inverse agonist of the CB1 receptor was detected in the HTRF® assay for direct cAMP measurement as a compound which increased cAMP concentration. The HTRF® assay also was used to determine EC50 values for CB1 receptor agonists and inverse agonists.
# Principle of the assay: The HTRF® assay kit was purchased from Cisbio-US, Inc. (Bedford, MA; Catalog #62AM4PEC). The HTRF® assay supported by the kit is a competitive immunoassay between endogenous cAMP produced by the CHO-K1 cells and tracer cAMP labeled with the dye d2. The tracer binding is visualized by a monoclonal anti-cAMP antibody labeled with Cryptate. The specific signal (i.e., fluorescence resonance energy transfer, FRET) is inversely proportional to the concentration of unlabeled cAMP in the standard or sample.
# The fluorescence ratio of the samples (test compound or compound buffer) was calculated and used to deduce respective cAMP concentrations by reference to the cAMP standard curve. […]
# [5] = target: T1, human CB2 receptor; assay: HTRF assay for direct cAMP measurement, CB2; format: cell-based; parameters: 93-0164 (CHO-K1 EA-Arrestin parental line); host or cells: CHO-K1 EA-Arrestin, clone #61
# [6] = system: male Sprague Dawley rats, MIA model of osteoarthritis; assay: Monosodium iodoacetate (MIA) model of osteoarthritis pain; format: in vivo, rat; settings: 3, 10 and 30 mg/kg orally, one hour after dosing, vehicle PEG400; FIG. 2
# Source text: Injection of monosodium iodoacetate (MIA) into a joint (Kalbhen, 1987) inhibits the activity of glyceraldehyde-3-phosphate dehydrogenase in chondrocytes, resulting in disruption of glycolysis and eventually in cell death. The progressive loss of chondrocytes results in histological and morphological changes of the articular cartilage, closely resembling those seen in osteoarthritis patients.
# The osteoarthritis was induced in 200 g male Sprague Dawley rats. […]
# Typically, during disease progression, there was an inflammation period of 0-7 days post-intra-articular injection followed by progressive degeneration of the cartilage and subchondral bone from days 14-55. […] Tactile allodynia was measured via von Frey assay, hind limb paw weight distribution was monitored using an incapacitence tester (Columbus Instruments, Columbus, OH, USA) and hind limb grip strength was measured using a grip strength meter (Columbus Instruments, Columbus, OH, USA). […] Hind paw weight distribution was determined by placing rats in a chamber so that each hind paw rests on a separate force plate of the incapacitence tester. The force exerted by each hind limb (measured in grams) is averaged over a 3 second period. Three measurements were taken for each rat, and the change in hind paw weight distribution calculated. […]
# [7] = system: male Sprague Dawley rats, FCA-induced hyperalgesia; assay: FCA-induced hyperalgesia model of inflammatory pain; format: in vivo, rat; settings: 0.1, 1, 3, 10 and 30 mg/kg orally, 1-hour post dosing, vehicle PEG400; FIG. 1
# Method: Animal info: Male Sprague Dawley rats from Harlan (200-225 g when received) were used. Upon arrival, rats were housed 4 per cage in shoe-box polycarbonate cages with wire tops, wood chip bedding and suspended food and water bottles. Animals were acclimated for 5-7 days prior to being injected with Freund's complete adjuvant (FCA) (Sigma; catalog #5881).
# Experimental procedure: 2 days (48 h) before testing compounds, baseline readings of all rats were taken right before FCA injection. Rats were then injected with 50 μL FCA containing 1 mg/mL Mtb (Mycobacterium tuberculosis) in right hind footpad under inhalation anesthesia (isoflurane). 48 hours after FCA injection, readings were taken as pre-dosing baseline and then rats were dosed orally with 0.5 mL of vehicle or compound (0.5 mL per 250 g rat). Readings were taken again at 1-hour post dosing. All readings were taken with an Analgesy-Meter (Ugo Basile) which measures mechanical hyperalgesia via paw pressure.
# Clinical scoring: FCA-induced hyperalgesia was tested with an Analgesy-Meter. Briefly, the Analgesy Meter applied an increasing pressure to the right hind paw. The paw withdrawal threshold was the pressure leading to withdrawal.
# Meanwhile a group of rats were dosed orally with 50 mg/kg of Diclofenac as a positive control. Readings were taken again at 1-hour post dosing. Dosing volume was 500 μL per 250 g rat.
# [8] = system: male Sprague Dawley rats, paclitaxel-induced allodynia; assay: Paclitaxel-induced allodynia; format: in vivo, rat; settings: 10 mg/kg orally, FIG. 3
# Method: Animals: Male Sprague Dawley rats [200-250 g] (Harlan Laboratories Inc., Livermore, CA) were housed three per cage and maintained in a humidity-controlled (40-60%) and temperature-controlled (68-72° F.) facility on a 12 h:12 h light/dark cycle (lights on at 6:30 am) with free access to food (Harlan Teklad, Orange, CA, Rodent Diet 8604) and water. Rats were allowed one week of habituation to the animal facility before starting treatment.
# Induction of Allodynia: Rats were treated intraperitoneally, with 2 mg/kg of paclitaxel (Sigma Aldrich, Saint Louis, MO) in 10% Cremophor vehicle (500 μL) on days 0, 2, 4, and 6.
# Clinical scoring: Tactile allodynia was tested using von Frey filaments. Briefly, the von Frey assay was performed using the standardized up down method with von Frey filaments, that determine the tactile sensitivity of the paw. By applying the increasingly or decreasingly thicker filaments to the paw in a logarithmic scale of actual force, a linear scale of perceived intensity is determined.
# Drug treatment: Eight days after the start of paclitaxel dosing, a baseline measurement (von Frey assay) was performed prior to dosing of compounds. […] As a positive control, rats were dosed intraperitoneally with 100 mg/kg gabapentin in water. The dosing volume for oral and peritoneal treatment was 500 μL. […]
# [9] = target: T2, hCB1; assay: Radioligand binding assay, hCB1; settings: Table C
# [10] = target: T2, hCB1; assay: PathHunter β-arrestin assay, CB1
# [11] = system: male Sprague-Dawley rats, STZ-induced PDPN; assay: Streptozotocin-induced painful diabetic peripheral neuropathy (PDPN) model; format: in vivo, rat; settings: 10 mg/kg orally in 0.5% methylcellulose; 1, 4 and 6 hours post-dosing; FIG. 9, FIG. 10
# Method: Male Sprague-Dawley rats were injected intraperitoneally with 50 mg/kg of streptozotocin (STZ) in sodium citrate buffer. 10% sucrose water was provided ad libitum for the first 48 hours post-STZ followed by regular drinking water. Rats were monitored once weekly for blood glucose levels and body weights. Development of tactile allodynia over time was analyzed using Von Frey filaments and a 50% withdrawal threshold was determined using Dixon's up-down procedure. […] Tactile allodynia was evaluated at 1, 4 and 6 hours post-dosing.
SMILES,Efficacy against acute and chronic pain [1],pEC50 [3],pEC50 [5],other results
Cc1c(C(=O)c2cccc3ccccc23)c2cccc3c2n1[C@H](CN1CCOCC1)CO3 [WIN 55212-2],effective against acute and chronic pain,–,–,–
COc1ccc2c(c1)c(CCN1CCOCC1)c(C)n2C(=O)c1cccc(Cl)c1Cl [GW405833],–,–,–,Hypersensitivity to mechanical stimuli ([2]; administered systemically): significantly reverses hypersensitivity to mechanical stimuli
"CC(C)(CO)NC(=O)c1nn(-c2ccc(Cl)cn2)c2c1C[C@H]1C[C@@H]21 [Compound 151, (1aR,5aR)-2-(5-Chloro-pyridin-2-yl)-1a,2,5,5a-tetrahydro-1H-2,3-diaza-cyclopropa[a]pentalene-4-carboxylic acid (2-hydroxy-1,1-dimethyl-ethyl)-amide]",–,7.04,8.42,pEC50 [4]: 4.14
"CCCCCCC(C)(C)c1ccc([C@@H]2C[C@H](O)CC[C@H]2CCCO)c(O)c1 [CP55,940]",effective against acute and chronic pain,–,–,–
CCCCCc1cc(O)c2c(c1)OC(C)(C)[C@@H]1CCC(C)=C[C@@H]21 [THC],effective against acute and chronic pain,–,–,–
"CC(C)(CO)NC(=O)c1nn(-c2ccc(F)cc2F)c2c1C[C@H]1C[C@@H]21 [Compound 493, (1aR,5aR)-2-(2,4-Difluoro-phenyl)-1a,2,5,5a-tetrahydro-1H-2,3-diaza-cyclopropa[a]pentalene-4-carboxylic acid (2-hydroxy-1,1-dimethyl-ethyl)-amide]",–,–,–,"Paw withdrawal threshold (PWT) in comparison with vehicle [6]: Increase in paw withdrawal threshold (PWT); Paw withdrawal threshold (PWT) in comparison with the vehicle [7]: increase in paw withdrawal threshold (PWT); Time of maximum efficacy post-dosing [8]: 1 h; Paw withdrawal threshold (PWT) in comparison with vehicle and gabapentin ([8]; von Frey 30, 60 and 180 minutes after dosing): increase in paw withdrawal threshold (PWT)"
"CNC(=O)[C@@H](NC(=O)c1nn(-c2c[n+]([O-])ccn2)c2c1C[C@@H]1C[C@H]21)C(C)(C)C [Compound 701, (1aS,5aS)-2-(4-Oxy-pyrazin-2-yl)-1a,2,5,5a-tetrahydro-1H-2,3-diaza-cyclopropa[a]pentalene-4-carboxylic acid ((S)-2,2-dimethyl-1-methylcarbamoyl-propyl)-amide]",–,–,–,pKi [9]: 6.98
COc1ccc(C(=O)c2c(C)n(CCN3CCOCC3)c3cc(I)ccc23)cc1 [AM630],–,–,–,Effect on the reversal of hypersensitivity by AM1241 [2]: inhibited
"CNC(=O)[C@@H](NC(=O)c1nn(-c2cnccn2)c2c1C[C@H]1C[C@@H]21)C(C)(C)C [Compound 667, (1aR,5aR)-2-Pyrazin-2-yl-1a,2,5,5a-tetrahydro-1H-2,3-diaza-cyclopropa[a]pentalene-4-carboxylic acid [2,2-dimethyl-1-((S)-methylcarbamoyl)-propyl]-amide]",–,8.82,9.52,pEC50 [4]: 6.71; pEC50 [10]: 6.84
"CC(C)(NC(=O)c1nn(-c2c[n+]([O-])ccn2)c2c1C[C@@H]1C[C@H]21)C(F)(F)F [Compound 919, (1aS,5aS)-2-(4-Oxy-pyrazin-2-yl)-1a,2,5,5a-tetrahydro-1H-2,3-diaza-cyclopropa[a]pentalene-4-carboxylic acid (2,2,2-trifluoro-1,1-dimethyl-ethyl)-amide]",–,8.63,9.70,"Analgesic efficacy (tactile allodynia, 50% withdrawal threshold) [11]: robust and sustained analgesic efficacy over 6 hours"
CCCCC/C=C\C/C=C\C/C=C\C/C=C\CCCC(=O)NCCO [anandamide],effective against acute and chronic pain,–,–,–
"O=C(N[C@H](CO)C1CCOCC1)c1nn(-c2c[n+]([O-])ccn2)c2c1C[C@H]1C[C@@H]21 [Compound 841, (1aR,5aR)-2-(4-Oxy-pyrazin-2-yl)-1a,2,5,5a-tetrahydro-1H-2,3-diaza-cyclopropa[a]pentalene-4-carboxylic acid [(S)-2-hydroxy-1-(tetrahydro-pyran-4-yl)-ethyl]-amide]",–,7.76,8.85,pEC50 [10]: 5.94
